Columns and labels:
[1] = Rat CNS distribution and estimated unbound brain exposure; type: in vivo
[2] = Non-human primate exposure; type: in vivo, non-human primates; settings: for Predicted brain exposure Cu,br: non-human primates
Cynomolgus macaques = assay: Resting state qEEG in non-human primates; type: in vivo, Macaca fasicularis; settings: subcutaneous, 0.3 and 3 mg/kg
Text: 6 adult male Cynomolgus macaques (Macaca fasicularis; 8-10 kg; 12-15 years old) were used for EEG studies. These animals had been used previously on other studies and were not considered to be pharmacologically naive. Subjects were housed in a temperature-controlled recording room and are maintained on a 12-hour light/dark cycle. The animals had access to water ad libitum and were fed a full daily regimen of food each day (Purina Animal Nutrition, Gray Summit, MO) enriched with fresh fruit and/or vegetables. All studies are conducted in compliance with USDA, NIH and SRI International IACUC guidelines. SRI International is an AAALAC accredited institution. […] Following the acclimation period, animals were dosed subcutaneously with vehicle or compound and EEG activity was recorded for 120 min. […]
Data was analyzed using existing, customized MATLAB scripts with the EEGLAB toolbox. […] Mean absolute power, log transformed absolute power, and relative power was calculated based on each frequency band’s contribution to the total absolute power (i.e., % power). The mean normalized power was subsequently calculated by dividing each frequency band’s absolute power in the drug condition with the corresponding power in the control condition for each individual animal (i.e., use each animal as its own control) and then average across subjects. […]

rats = assay: Cardiovascular telemetry in rats; settings: telemetered rats
Wistar rats = assay: Open field exploratory behaviour; type: in vivo; settings: rat
Method: During the rat passive avoidance testing, open field exploratory behavior was measured on study days 4 and 5 (acclimatisation and handling), 6 (training) and 7 (recall). The open field apparatus consisted of black-painted Perspex 620 mm^2 with walls 300 mm high. Locomotor activity, measured as the distance traveled in a 300 s period, as well as incidences of rearing and grooming were recorded, using Ethovision XT tracking software (Noldus UK).

healthy elderly subjects = assay: Clinical fMRI Arena task in healthy elderly subjects; type: in vivo, human; design: Activation across a-priori regions during encoding and retrieval / Left hippocampus activation effect: dose or concentration left out as unconfirmed
Text: All functional MRI images were acquired on a 3T scanner using gradient echo-echo planar imaging (GRE-EPI: TR: […]; TE: 30 ms; 90-degree flip angle; slices: 53; voxel size 3.75x 3.75 mm) and an 8-channel head coil. All data processing was done using Statistical Parameteric Mapping (SPM) version 5 software. All functional images were co-registered to subjects own T1 weighted structural image for anatomical localization, realigned using a least-squares approach and a 6 parameter (rigid body) spatial translation, normalized to Montreal neurological institute (MNI) using a high dimensional, non-linear transformation and smoothed using 3D 7 mm Gaussian filter. A high pass filter was applied to remove low temporal frequency drift. Bilateral hippocampal and caudate masks based on previous publications using the Arena task were used for analysis ([Antonova et al., 2009], [2011]). The masks consisted of spheres of radius 6mm centered on co-ordinates from these papers.
A block design was used to assess functional activation during encoding, retrieval, and rest (control) conditions of the Arena task. Beta-estimates of functional response during each condition were created by modeling signal changes convolved with a double gamma hemodynamic response function with peak responses at 4 and 8 s following stimulus onset for each individual. In the first level analysis, difference in beta estimates for encoding versus rest, and retrieval versus rest were derived. […] Functional responses in the a-priori ROIs were extracted using hippocampal, ventral striatum, and caudate masks derived from subject own T1 weighted image. To test for drug effects in these pre-specified regions an ANOVA including fixed-effect terms representing treatment group, study site as a between subject factor, and baseline MMSE score as covariate was used.

## CCOC(=O)N1CCC[C@H](N2CCC(C(=O)NC3(C)CCC3)CC2)CC1 [HTL9936, ethyl (S)-4-(4-((1-methylcyclobutyl)carbamoyl)piperidin-1-yl)azepane-1-carboxylate]
[1]; 1 mg/kg intravenous and 10 mg/kg oral
  Distribution into the CNS: significant distribution into the CNS
[1]; 3 mg/kg p.o.
  Estimated unbound drug in the brain Cu,br: 79 nM
[1]; 10 mg/kg p.o.
  Estimated unbound drug in the brain Cu,br: 262 nM
[1]; 30 mg/kg p.o.
  Estimated unbound drug in the brain Cu,br: 786 nM
[2]; 0.3 mg/kg subcutaneous
  Predicted brain exposure Cu,br: 20 nM
[2]; 3 mg/kg subcutaneous
  Predicted brain exposure Cu,br: 198 nM
[2]; primates
  Oral bioavailability: low oral bioavailability
Cynomolgus macaques
  qEEG power: increased delta power
rats; 3 mg/kg oral
  Cardiovascular effects at 3 mg/kg: No significant effects
rats; oral 3, 10, 30 and 100 mg/kg, 5 h post-dose average
  Heart rate and mean arterial blood pressure: dose-dependent increase in heart rate and mean arterial blood pressure
Wistar rats
  Open-field exploratory behavior: no difference in effect
Healthy elderly subjects; 10.1 dose (so in the source)
  Activation across a-priori regions during encoding and retrieval: increased bilateral activation
Healthy elderly subjects; 40.3 dose (so in the source)
  Left hippocampus activation effect: smaller effect
Healthy elderly subjects; healthy elderly, i.v. infusion
  Arena task performance: did not significantly improve task performance
  fMRI activation during encoding of spatial cues: significant drug by activation interaction effect in the left hippocampus
Healthy elderly subjects; human, high dose 40.3 mg i.v.
  Predicted steady-state plasma concentration: 100 ng/mL
Healthy elderly subjects; human, low and high doses
  Predicted exposure as multiple of human M1-receptor in vitro potency: 0.2- to 3.4 fold
Healthy elderly subjects; human, low dose 10.1 mg i.v.
  Predicted steady-state plasma concentration: 25 ng/mL
